From patent US12195558B2, “Targeted delivery system and methods of use therefor” (SANFORD BURNHAM PREBYS MEDICAL DISCOVERY INSTITUTE, priority 2015, dated 2025)
Bridge positions count the residues as written; N and C are the ends. Ends that are not written are not given here.

What was measured:
[1] = tested on: orthotopic 4T1 breast tumors; test: In vivo homing of intravenous FAM-labeled peptide, 4T1 tumors; design: species or system mice; conditions: 4T1 syngeneic tumors, 200 μg FAM-labeled peptide i.v., 2 hours
Experimental: (§1) FIGS. 7A and 7B are photographs depicting in vivo homing of an exemplary TT1 peptide. 200 μg of FAM-labeled TT1 (SEQ ID NO: 3) peptide or control peptide in PBS was intravenously injected to mice bearing orthotopic 4T1 (FIG. 7A) or MCF7 (FIG. 7B) breast tumors. The peptides were allowed to circulate for 2 hours and organs were collected and photographed under white (top panels) or UV (bottom panels) light. Arrows point to the tumors of TT1 (SEQ ID NO: 3)-injected mice. Note robust signal (white in black and white versions and green in color versions of the Figures) indicating homing of TT1 (SEQ ID NO: 3) peptide to the tumor in both models. H: heart; Lu: lung; Li: liver; Ki: kidney; Sp: spleen; T: tumor.

[2] = Aggregation of peptide-coated nanoparticles; assay type: physicochemical; conditions: peptide on nanoparticles
Description: The linear TT1 Peptide was selected for further study as a D[KLAKLAK]2 (SEQ ID NO: 42) conjugate on NWs. The CGKRK (SEQ ID NO: 6) and LyP-1 Peptides were included for comparison.

[3] = molecular target: T1, NRP-1 b1b2 domain (Homo sapiens, UniProt O14786); test: Binding of peptide-displaying T7 phage to NRP-1 b1b2-coated magnetic beads; conditions: 30 minutes at 37° C., p32 versus NRP-1 b1b2 beads
T1 sequence (O14786 273-586 limits assumed): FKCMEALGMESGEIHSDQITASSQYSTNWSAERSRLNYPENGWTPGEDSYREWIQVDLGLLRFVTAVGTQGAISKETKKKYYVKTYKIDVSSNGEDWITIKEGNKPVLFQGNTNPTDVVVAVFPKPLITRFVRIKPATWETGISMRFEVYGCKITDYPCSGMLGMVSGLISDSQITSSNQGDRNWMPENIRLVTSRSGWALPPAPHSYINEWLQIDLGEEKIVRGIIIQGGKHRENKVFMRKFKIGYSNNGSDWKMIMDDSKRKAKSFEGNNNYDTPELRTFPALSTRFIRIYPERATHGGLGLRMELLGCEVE
Experimental: FIG. 9 is a bar graph showing proteolytic switching of binding specificity of an exemplary TT1 peptide (SEQ ID NO: 3). T7 phage displaying an exemplary TT1 peptide (SEQ ID NO: 3) were exposed to increasing concentrations of crystalline trypsin and incubated for 30 minutes at 37° C. After treatment, phage were incubated with magnetic beads coated with either p32 (decending hatching left to right) or NRP-1 b1b2 (ascending hatching left to right) protein, followed by washes to remove unbound phage and quantitation of specifically bound phage.
(§2) Variant peptide-encoding genomic DNA of phage was sequenced and analyzed for the presence of consensus motifs. After two rounds of selection, both linear and cyclic libraries converged to contain an RGXRS (SEQ ID NO: 4) pentapeptide motif (see FIG. 2B). The binding of RGXRS (SEQ ID NO: 4)-displaying phage to p32 was specific, as these phage bound to magnetic beads coated with p32 protein and not to beads coated with ligand-binding b1b2 domain of the cell and tissue penetration receptor NRP-1 or BSA (see FIG. 3).
The p32 binding motif with consensus sequence RGXRS (SEQ ID NO: 4; i.e., the RGXRS (SEQ ID NO: 4) pentapeptide motif) contains a cryptic RGXR CendR element that can be unmasked by a tryptic cleavage. […]

[4] = tested on: MCF10 breast cancer cells; test: In vitro binding and internalization of FAM-labeled peptide in MCF10 cells; assay type: cell-based; conditions: 100 μM FAM-labeled peptide, 1 hour at 37° C.
Experimental: (§3) FIGS. 6A and 6B are fluorescence micrographs showing internalization of CKRGARSTC (TT1; SEQ ID NO: 3) peptide in breast tumor cells in vitro. 100 μM FAM-labeled peptides were incubated with 4T1 (FIG. 6A) or MCF10 (FIG. 6B) breast cancer cells for 1 hour at 37° C. in DMEM high glucose/10% serum medium. Cells were washed, fixed, stained with anti-FITC antibody, and MITOTRACKER® (Life Technologies) or phalloidin as indicated. Scale bars: 20 μm.
(§4) The ability of the TT1 Peptide to bind to cultured breast tumor cells was tested in vitro.

[5] = molecular target: T2, p32 (Homo sapiens, UniProt Q07021); test: Binding of peptide-displaying T7 phage to p32-coated magnetic beads; conditions: phage-displayed peptide; relative to LyP-1
T2 construct: made in house; host or cells: E. coli Rosetta-gami-2 (Novagen)
T2 sequence (Q07021 74-282): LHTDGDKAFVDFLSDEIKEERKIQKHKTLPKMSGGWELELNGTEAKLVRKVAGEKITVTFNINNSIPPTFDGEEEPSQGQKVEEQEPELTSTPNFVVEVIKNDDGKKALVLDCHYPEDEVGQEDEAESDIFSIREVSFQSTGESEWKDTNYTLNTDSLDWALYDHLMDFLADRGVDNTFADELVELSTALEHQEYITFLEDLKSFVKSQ
Experimental: FIG. 10 is a bar graph showing that the p32 binding of the RGXR(S/T) motif (SEQ ID NOs: 4 and 5) in the exemplary TT1 peptide (SEQ ID NO: 3) was not dependent on the cyclic structure and compatible with flanking sequences. Phage clones displaying the indicated peptides were incubated in p32-coated magnetic microbeads. After washing to remove non-bound phage, specifically bound phage were quantified.
Milligram quantities of recombinant His-tagged p32 protein were expressed in E. coli and coated onto Ni-NTA magnetic beads, and biopanning was performed using two T7 bacteriophage peptide libraries (cyclic Cx7C and linear X7 library).
as §2
(§5) An exemplary RGXRS (SEQ ID NO: 4) pentapeptide motif-containing peptide with the sequence CKRGARSTC (SEQ ID NO: 3) was designated as the […] and used it for further studies. Mutating any amino acid in the consensus motif of TT1 abolished the phage binding to p32. This new peptide conferred about 15-fold stronger phage binding to immobilized p32 protein than did the canonical LyP-1 peptide.

[6] = molecular target: NRP-1 (Homo sapiens, UniProt O14786); test: Fluorescence polarization assay on NRP-1 (control protein); assay type: binding; conditions: NRP-1 as control protein
Description: (§6) FIGS. 4A and 4B are plots showing a comparison of the binding of LyP-1 (SEQ ID NO: 7; diamonds) and TT1 (SEQ ID NO: 3; squares) to p32 in a fluorescence polarization assay. […] NRP-1 was used as a control protein.

[7] = tested on: orthotopic MCF7 breast tumors; test: In vivo homing of intravenous FAM-labeled peptide, MCF7 tumors; design: species or system mice; conditions: 200 μg FAM-labeled peptide i.v., 2 hours
Experimental: as §1

[8] = tested on: MDA-MB-231 xenografts; test: In vivo homing of intravenous peptide, MDA-MB-231 xenografts; design: species or system mice; conditions: i.v.
[9] = tested on: atherosclerotic plaques; test: Homing to atherosclerotic plaques in ApoE null mice on high-fat diet; assay type: in vivo; conditions: for homing to and penetration into plaque tissue: 100 mg FAM labeled peptide i.v., one hour
Experimental: ApoE null mice that had been kept on a high-fat diet were intravenously injected with […] of the FAM labeled peptides. One hour later, the mice were perfused through the heart under anesthesia, and tissues were collected. The panels show accumulation of FAM labeled peptides visualized with UV excitation. The center two and right two panels show atherosclerotic aortas that were sectioned at the aortic root level and examined by confocal microscopy.

[10] = molecular target: T2, p32; test: Fluorescence polarization assay with synthetic peptides on p32; assay type: binding; conditions: for binding to p32 in fluorescence polarization assay (in words): synthetic peptides
Description: as §6
FIG. 5 is a plot showing that P32-TT1 (CKRGARSTC; SEQ ID NO: 3) and LyP-1 (SEQ ID NO: 7) peptides competed for binding to the P32 protein. […] Squares: p32-TT1; Diamonds: LyP-1; X: RPARPAR peptide (SEQ ID NO: 14).
as §5

[11] = tested on: 4T1 breast cancer cells; test: In vitro binding and internalization of FAM-labeled peptide in 4T1 cells; assay type: cell-based; conditions: 100 μM FAM-labeled peptide, 1 hour at 37° C.
Experimental: as §3, §4

NRP-1, sequence (O14786 22-923): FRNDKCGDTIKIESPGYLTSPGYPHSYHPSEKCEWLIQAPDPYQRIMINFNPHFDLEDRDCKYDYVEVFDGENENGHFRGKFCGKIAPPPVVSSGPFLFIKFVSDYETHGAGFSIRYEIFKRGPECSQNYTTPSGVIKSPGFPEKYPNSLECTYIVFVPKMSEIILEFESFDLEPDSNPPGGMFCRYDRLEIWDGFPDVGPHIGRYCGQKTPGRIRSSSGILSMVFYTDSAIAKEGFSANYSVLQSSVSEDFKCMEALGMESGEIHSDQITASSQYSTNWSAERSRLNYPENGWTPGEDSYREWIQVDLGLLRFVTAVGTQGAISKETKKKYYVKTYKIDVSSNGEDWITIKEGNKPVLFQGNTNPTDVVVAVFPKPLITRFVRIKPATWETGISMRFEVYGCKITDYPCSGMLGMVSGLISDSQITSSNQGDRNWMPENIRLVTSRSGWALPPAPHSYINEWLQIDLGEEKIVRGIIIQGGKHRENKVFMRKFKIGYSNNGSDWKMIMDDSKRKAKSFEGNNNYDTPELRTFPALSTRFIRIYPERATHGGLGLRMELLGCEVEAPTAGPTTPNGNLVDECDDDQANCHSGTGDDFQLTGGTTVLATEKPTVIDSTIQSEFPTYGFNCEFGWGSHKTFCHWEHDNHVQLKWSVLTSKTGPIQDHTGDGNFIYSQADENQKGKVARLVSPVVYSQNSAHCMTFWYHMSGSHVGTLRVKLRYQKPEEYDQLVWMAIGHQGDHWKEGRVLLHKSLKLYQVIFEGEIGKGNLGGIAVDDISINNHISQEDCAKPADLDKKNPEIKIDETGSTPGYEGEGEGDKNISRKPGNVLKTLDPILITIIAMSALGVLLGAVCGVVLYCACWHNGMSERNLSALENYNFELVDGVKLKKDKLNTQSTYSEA

CKRGARSTC (disulfide 1-9 (inferred)) [TT1 Peptide]
tumor homing [1]: homed to breast tumors | tumor homing ([1]; listed as TT1): robust signal | aggregation of the peptide-coated nanoparticles [2]: tended to cause aggregation of the peptide-coated nanoparticles | binding specificity after exposure to trypsin [3]: affinity switching from p32 to NRP-1 b1b2 | cell surface binding and internalization [4]: rapidly bound to the surface of 4T1 and MCF10 breast cancer cells and was internalized over time | phage binding to immobilized p32 protein, fold stronger than the canonical LyP-1 peptide [5]: about 15 fold | binding to NRP-1 in fluorescence polarization assay (in words) [6]: only background binding | tumor homing [7]: homed to breast tumors | tumor homing ([7]; listed as TT1): robust signal | tumor homing [8]: homed to breast tumors | homing to and penetration into plaque tissue [9]: homed to and penetrated atherosclerotic lesions | homing to and penetration into plaque tissue ([9]; listed as TT1): homed to and penetrated into plaque tissue as well as or better than LyP-1 | plaque homing compared with LyP-1 peptide ([9]; ApoE null mice on high-fat diet): more robust than seen with the LyP-1 peptide | inhibition of binding of labeled TT1 to P32 by unlabeled peptide ([10]; competition, fluorescence polarization): could be inhibited | binding site on p32 ([10]; fluorescence polarization): shared the binding site on p32 with the LyP-1 peptide | affinity for p32 (in words) ([10]; method not stated at the place): high affinity for p32 | binding to p32 in fluorescence polarization assay (in words) [10]: specific | binding to p32 in fluorescence polarization assay (in words) ([10]; listed as TT1): bound to p32 with a higher affinity than LyP-1 | cell surface binding and internalization [11]: rapidly bound to the surface of 4T1 and MCF10 breast cancer cells and was internalized over time
